Key:
[1] = system: α-Glucosidase Derived from NBRC4239 Strain; assay: Substrate specificity of the enzyme; assay type: biochemical, Aspergillus sojae; settings: 40°C, pH 6.0; for Relative Activity* (%): substrate 10mM, relative to decomposition rate of 10 mM maltose
Method: The substrate specificity of the present enzyme was evaluated at the conditions of 40°C and pH 6.0.

[2] = system: α-Glucosidase Derived from NBRC4239 Strain; assay: Effect of metal ion on the enzyme activity; assay type: biochemical, Aspergillus sojae
Method: The hydrolytic activity using maltose as the substrate was measured as shown below. A 20 mM maltose (50µL) dissolved in the 20mM MES buffer (pH 6.0) and an enzyme solution diluted by the buffer are mixed and incubated at 40°C for 30 min., then, 1 µL of 10% oxalic acid solution was added and heated at 100°C for 10 min. to stop the reaction. The amount of liberated glucose in the reaction solution was measured by Glucose CII Test Wako (produced by Wako Pure Chemical Industries, Ltd.). One unit of α-glucosidase activity was defined as the amount of enzyme that catalyzes hydrolysis of 1 µmol of maltose per minute. The effect of various metal ions on the present enzyme was studied. The enzyme activity was analyzed according to <Analysis Method of α-Glucosidase Activity>.

| Compound | Relative Activity* (%) [1] [%] | hydrolytic activity toward substrate (in words) [1] | Specific Activity (%) ([2]; Concentration 5 mM added to reaction mixture, no addition = 100) | effect on the enzyme activity (in words) ([2]; addition of ions to the reaction mixture) |
| --- | --- | --- | --- | --- |
| OC[C@H]1O[C@H](OC[C@H]2O[C@H](OC[C@H]3OC(O)[C@H](O)[C@@H](O)[C@@H]3O)[C@H](O)[C@@H](O)[C@@H]2O)[C@H](O)[C@@H](O)[C@@H]1O (stereo partly drawn) [isomaltotriose] | 161 | – | – | – |
| OC[C@H]1O[C@@H]2O[C@H]3[C@H](O)[C@@H](O)[C@@H](O[C@H]4[C@H](O)[C@@H](O)[C@@H](O[C@H]5[C@H](O)[C@@H](O)[C@@H](O[C@H]6[C@H](O)[C@@H](O)[C@@H](O[C@H]7[C@H](O)[C@@H](O)[C@@H](O[C@H]8[C@H](O)[C@@H](O)[C@@H](O[C@H]1[C@H](O)[C@H]2O)O[C@@H]8CO)O[C@@H]7CO)O[C@@H]6CO)O[C@@H]5CO)O[C@@H]4CO)O[C@@H]3CO [β-cyclodextrine] | 48 | well hydrolytic activities | – | – |
| O=C(O)CN(CCN(CC(=O)O)CC(=O)O)CC(=O)O [EDTA] | – | – | 85 | inhibited the activity somewhat |
| OC[C@H]1O[C@H](O[C@H]2[C@H](O)[C@@H](O)[C@@H](O[C@H]3[C@H](O)[C@@H](O)[C@@H](O[C@H]4[C@H](O)[C@@H](O)C(O)O[C@@H]4CO)O[C@@H]3CO)O[C@@H]2CO)[C@H](O)[C@@H](O)[C@@H]1O (stereo partly drawn) [maltotetraose] | 16 | a little low | – | – |
| OC[C@H]1O[C@H](O[C@H]2O[C@H](CO)[C@@H](O)[C@H](O)[C@H]2O)[C@H](O)[C@@H](O)[C@@H]1O [trehalose] | 1 | very slight | – | – |
| OC[C@H]1O[C@H](OC[C@H]2O[C@H](OC[C@H]3O[C@H](OC[C@H]4OC(O)[C@H](O)[C@@H](O)[C@@H]4O)[C@H](O)[C@@H](O)[C@@H]3O)[C@H](O)[C@@H](O)[C@@H]2O)[C@H](O)[C@@H](O)[C@@H]1O (stereo partly drawn) [isomaltotetraose] | 168 | – | – | – |
| OC[C@H]1O[C@H](O[C@H]2[C@H](O)[C@@H](O)[C@@H](O[C@H]3[C@H](O)[C@@H](O)[C@@H](O[C@H]4[C@H](O)[C@@H](O)[C@@H](O[C@H]5[C@H](O)[C@@H](O)C(O)O[C@@H]5CO)O[C@@H]4CO)O[C@@H]3CO)O[C@@H]2CO)[C@H](O)[C@@H](O)[C@@H]1O (stereo partly drawn) [maltopentaose] | 41 | – | – | – |
| kojibiose | 91 | well hydrolytic activities | – | – |
| OC[C@H]1O[C@H](O[C@H]2[C@H](O)[C@@H](O)[C@@H](O[C@H]3[C@H](O)[C@@H](O)C(O)O[C@@H]3CO)O[C@@H]2CO)[C@H](O)[C@@H](O)[C@@H]1O (stereo partly drawn) [maltotriose] | 45 | – | – | – |
| OC[C@H]1O[C@@H]2O[C@H]3[C@H](O)[C@@H](O)[C@@H](O[C@H]4[C@H](O)[C@@H](O)[C@@H](O[C@H]5[C@H](O)[C@@H](O)[C@@H](O[C@H]6[C@H](O)[C@@H](O)[C@@H](O[C@H]7[C@H](O)[C@@H](O)[C@@H](O[C@H]1[C@H](O)[C@H]2O)O[C@@H]7CO)O[C@@H]6CO)O[C@@H]5CO)O[C@@H]4CO)O[C@@H]3CO [α-cyclodextrine] | 58 | well hydrolytic activities | – | – |
| OC[C@H]1O[C@H](O[C@H]2[C@H](O)[C@@H](O)C(O)O[C@@H]2CO)[C@H](O)[C@@H](O)[C@@H]1O (mixture of isomers) [maltose] | 100 | well hydrolytic activities | – | – |
| OC[C@H]1O[C@H](O[C@H]2[C@H](O)[C@@H](O)[C@@H](O[C@H]3[C@H](O)[C@@H](O)[C@@H](O[C@H]4[C@H](O)[C@@H](O)[C@@H](O[C@H]5[C@H](O)[C@@H](O)[C@@H](O[C@H]6[C@H](O)[C@@H](O)[C@@H](O[C@H]7[C@H](O)[C@@H](O)C(O)O[C@@H]7CO)O[C@@H]6CO)O[C@@H]5CO)O[C@@H]4CO)O[C@@H]3CO)O[C@@H]2CO)[C@H](O)[C@@H](O)[C@@H]1O (stereo partly drawn) [maltoheptaose] | 57 | – | – | – |
| OC[C@H]1O[C@H](O[C@H]2[C@H](O)[C@@H](O)[C@@H](O[C@H]3[C@H](O)[C@@H](O)[C@@H](O[C@H]4[C@H](O)[C@@H](O)[C@@H](O[C@H]5[C@H](O)[C@@H](O)[C@@H](O[C@H]6[C@H](O)[C@@H](O)C(O)O[C@@H]6CO)O[C@@H]5CO)O[C@@H]4CO)O[C@@H]3CO)O[C@@H]2CO)[C@H](O)[C@@H](O)[C@@H]1O (stereo partly drawn) [maltohexaose] | 49 | – | – | – |
| OC[C@H]1O[C@H](OC[C@H]2O[C@H](O[C@H]3[C@H](O)[C@@H](O)C(O)O[C@@H]3CO)[C@H](O)[C@@H](O)[C@@H]2O)[C@H](O)[C@@H](O)[C@@H]1O (stereo partly drawn) [panose] | 153 | – | – | – |
| OC[C@H]1O[C@H](O[C@H]2[C@H](O)[C@@H](CO)OC(O)[C@@H]2O)[C@H](O)[C@@H](O)[C@@H]1O (stereo partly drawn) [nigerose] | 153 | well hydrolytic activities | – | – |
| OC[C@H]1O[C@H](OC[C@H]2OC(O)[C@H](O)[C@@H](O)[C@@H]2O)[C@H](O)[C@@H](O)[C@@H]1O (stereo partly drawn) [isomaltose] | 163 | well hydrolytic activities | – | – |
| OC[C@H]1O[C@@H]2O[C@H]3[C@H](O)[C@@H](O)[C@@H](O[C@H]4[C@H](O)[C@@H](O)[C@@H](O[C@H]5[C@H](O)[C@@H](O)[C@@H](O[C@H]6[C@H](O)[C@@H](O)[C@@H](O[C@H]7[C@H](O)[C@@H](O)[C@@H](O[C@H]8[C@H](O)[C@@H](O)[C@@H](O[C@H]9[C@H](O)[C@@H](O)[C@@H](O[C@H]1[C@H](O)[C@H]2O)O[C@@H]9CO)O[C@@H]8CO)O[C@@H]7CO)O[C@@H]6CO)O[C@@H]5CO)O[C@@H]4CO)O[C@@H]3CO [γ-cyclodextrine] | 14 | a little low | – | – |

Reference: patent EP3211076A1, “NOVEL ALPHA-GLUCOSIDASE” (Showa Sangyo Co., Ltd., priority 2014, dated 2016)
